Experimental data taken from patent US20110082087A1, “COMPOUNDS FOR TREATING PAIN” (Edificio ICAT, priority 2008, published 2011).

How the values were obtained:
[1] = Partition into lipid bilayer vesicles (fluorescence titration); type: physicochemical; details: mammal-mimetic lipid bilayer vesicle; numerical treatment of fluorescence titration
From the text: We performed biophysical studies using fluorescent methodologies in order to characterize the interaction of KTP-NH2 with liposomes representing human cell membranes (Santos N. C., Prieto M. and Castanho M. A. 2003. Quantifying molecular partition into model systems of biomembranes: an emphasis on optical spectroscopic methods. Biochim Biophys Acta 1612: 123-135.). A clear interaction of KTP-NH2 with the lipid bilayers was observed. […] When titrated with a mammal-mimetic lipid bilayer vesicle (circles), the fluorescence intensity of the phenolic moiety increases due to insertion in the apolar environment created by the lipids. The POPC system mimetizes the external layer of human cell membranes, whereas POPG lipidic mixture mimetizes the internal layer of human cell membranes.
In order to confirm that these plasma-stable KTP-NH2 derivatives maintained their lipophilicity, their potential interaction with human cell membranes was assessed. Again, we performed biophysical studies using fluorescent methodologies (Santos N. C., Prieto M. and Castanho M. A. 2003. Quantifying molecular partition into model systems of biomembranes: an emphasis on optical spectroscopic methods. Biochim Biophys Acta 1612: 123-135.).

[2] = Plasma serum stability of analogues; type: in vitro ADME; details: Human Serum, 1-hour incubation, read-out: Mean Parent Remaining (%); for remaining at 1 h, 800 uM: test concentration 800 uM; for remaining at 1 h, 400 uM: test concentration 400 uM
Experimental: These analogues were tested for plasma serum stability, in comparison with KTP-NH2.

rats = assay: Comparison with morphine, behavioural nociception tests and behaviour observation; type: in vivo, rat; details: rats; i.p.
Experimental: (§1) In vivo behavioural anti-nociception tests were carried out in rats (Wister, male). Unless otherwise stated, compounds were administered by intra-peritoneal (i.p.) injection. For most assays, the Tail Flick and the Hot Plate tests were used.
The analgesic potential of KTP-NH2 was also verified by comparison with well-known, widely-used analgesic molecules: ibuprofen and morphine.
From FIG. 12 it is possible to observe that the efficacy of 3 mg/100 g of KTP-NH2 is similar to that observed with 0.5 mg/100 g dose of morphine.

rats (Wister, male) [3] = assay: Increasing-temperature Hot Plate test; type: in vivo, rat; details: i.p.; rat
Experimental: as §1
The hot-plate test (Eddy N. B and Leimbach D. 1953. Synthetic analgesics II. Dithienylbutenyl and dithienylbutylamines J. Pharmacol. Exp. Ther. 45: 339) evaluates a supraspinally integrated response in the form of thermal pain reflexes due to footpad contact with a heated surface. During the experiments, the animal is confined in a removable clear acrylic compartment where the latency time to the first hind paw or/and jumping responses are measured. […] The response is the licking of the hindpaw, and the corresponding plate temperature represents the recorded nociceptive end-point. The advantage of Increasing-Temperature Hot-Plate test over the standard constant-temperature hot-plate test is the higher sensitivity and the lack of influences of pre-exposure to the hot-plate before testing. Animal reaction temperature is a measurement of animal resistance to pain and is used to measure efficacy of analgesics.

rats (Wister, male) [4] = assay: Tail Flick test; type: in vivo, rat; details: i.p.; rat
Experimental: as §1
The tail-flick test (D'Amour F. E., Smith D. L. 1941. A method for determining the loss of pain sensation. J Pharmacol Exp Ther 1941; 72:74-79) is a standard investigative tool for pain and analgesia assessment in rodents. It is based on a spinal reflex response of the tail to radiant heat. Pain sensitivity in rats was measured as they responded to the application of radiant heat to a small area of their tails. The rat's tail was placed over a window located on a platform and subjected to irradiation by an intense light beam (10 W). When the rat feels discomfort, it flicks its tail which automatically stops the timer. The reaction time from activation of the light beam to the tail flick is automatically presented on a digital display. A cut-off time of 24 s was applied. Animal reaction time is a measurement of animal resistance to pain and is used to measure efficacy of analgesics.

## Ibuprofen-L-Tyrosyl-L-Arginine-OH [Ibu-KTP]
[1]
  local concentration in the model membrane of mammals relative to surrounding bulk aqueous phase: ~333 fold

## CC(C)Cc1ccc(C(C)C(=O)N[C@H](Cc2ccc(O)cc2)C(=O)N[C@@H](CCCNC(=N)N)C(N)=O)cc1 (stereo partly drawn) [Ibu-D-Tyr-L-Arg-NH2, Ibuprofen-D-Tyrosyl-L-Arginine-NH2]
[2]
  remaining at 1 h, 800 uM: 94.1%

## CC(C)Cc1ccc([C@H](C)C(=O)N[C@@H](Cc2ccc(O)cc2)C(=O)N[C@@H](CCCNC(=N)N)C(N)=O)cc1 [Ibu-KTP-NH2, Ibuprofen-L-Tyrosyl-L-Arginine-NH2]
[2]
  remaining at 1 h, 800 uM: 51.4%

## CN1CC[C@]23c4c5ccc(O)c4O[C@H]2[C@@H](O)C=C[C@H]3[C@H]1C5 [morphine, reference compound]
rats
  alterations in behavior (secondary effects): several alterations in behavior, like scratching

## N=C(N)NCCC[C@@H](NC(=O)[C@@H](N)Cc1ccc(O)cc1)C(N)=O [L-Tyr-D-Arg-NH2, L-Tyrosyl-D-Arginine-NH2]
[2]
  remaining at 1 h, 400 uM: 78.8%

## N=C(N)NCCC[C@@H](NC(=O)[C@H](N)Cc1ccc(O)cc1)C(N)=O [D-Tyr-D-Arg-NH2, D-Tyrosyl-D-Arginine-NH2]
[2]
  remaining at 1 h, 400 uM: 98.4%

## N=C(N)NCCC[C@H](NC(=O)[C@H](N)Cc1ccc(O)cc1)C(N)=O [D-Tyr-L-Arg-NH2, D-Tyrosyl-L-Arginine-NH2]
[2]
  remaining at 1 h, 400 uM: 98%

## CN[C@@H](Cc1ccc(O)cc1)C(=O)N[C@@H](CCCNC(=N)N)C(N)=O [Me-L-Tyr-L-Arg-NH2, Methyl-L-Tyrosyl-L-Arginine-NH2]
[2]
  remaining at 1 h, 400 uM: 89%

## CN[C@@H](Cc1ccc(O)cc1)C(=O)N[C@H](CCCNC(=N)N)C(N)=O [Me-L-Tyr-D-Arg-NH2, Methyl-L-Tyrosyl-D-Arginine-NH2]
[2]
  remaining at 1 h, 400 uM: 98.5%

## N=C(N)NCCC[C@H](NC(=O)[C@@H](N)Cc1ccc(O)cc1)C(=O)O [KTP, L-Tyrosyl-L-Arginine, reference compound]
Rats (Wister, male) [3]
  effect in hot plate test: very small effect
Rats (Wister, male) [4]
  effect on tail flick latency: very small effect
